Measurements from patent US8124788B2, “Spirocyclic cyclohexane compounds with analgesic activity” (Gruenenthal GmbH, priority 2006, dated 2012).

Biological target: T1, human μ opiate receptor (Homo sapiens, UniProt P35372)
T1 construct: purchased PerkinElmer Life Sciences, Zaventem, Belgium RB-HOM; host or cells: CHO-K1 cells (recombinant expression)
Experiment: Affinity for the human μ opiate receptor ([3H]-naloxone displacement, CHO-K1 membrane preparation, SPA)
Assay type: binding
Conditions: compounds prepared via automated synthesis; single measurements at a test concentration of 1 μM
Procedure: The receptor affinity for the human μ opiate receptor is determined in a homogeneous set-up in microtitre plates. For this purpose, dilution series of the substances to be tested are incubated with a receptor membrane preparation (15-40 μg of protein/250 μl of incubation batch) of CHO-K1 cells which express the human μ opiate receptor (RB-HOM receptor membrane preparation from PerkinElmer Life Sciences, Zaventem, Belgium) in the presence of 1 nmol/l of the radioactive ligand [^3H]-naloxone (NET719, PerkinElmer Life Sciences, Zaventem, Belgium) and 1 mg of WGA-SPA-Beads (wheat germ agglutinin SPA beads from Amersham/Pharmacia, Freiburg, Germany) in a total volume of 250 μl for 90 minutes at room temperature. 50 mmol/l of Tris-HCl supplemented with 0.06% of bovine serum albumin are used as the incubation buffer. 100 μmol/l of naloxone are additionally added for determination of the non-specific binding. After the end of the ninety-minute incubation time, the microtitre plates are centrifuged for 20 minutes at 1,000 g and the radioactivity is measured in a β-counter (Microbeta-Trilum, PerkinElmer Wallac, Freiburg, Germany). The percentage displacement of the radioactive ligand from its binding to the human μ opiate receptor is determined at a concentration of the test substances of 1 μmol/l and stated as the percentage inhibition of the specific binding. Starting from the percentage displacement by various concentrations of the test substances, IC50 inhibitory concentrations which cause a 50 percent displacement of the radioactive ligand are calculated. By conversion by means of the Cheng-Prusoff relationship, Ki values for the test substances are obtained.

T1 sequence (P35372 whole entry): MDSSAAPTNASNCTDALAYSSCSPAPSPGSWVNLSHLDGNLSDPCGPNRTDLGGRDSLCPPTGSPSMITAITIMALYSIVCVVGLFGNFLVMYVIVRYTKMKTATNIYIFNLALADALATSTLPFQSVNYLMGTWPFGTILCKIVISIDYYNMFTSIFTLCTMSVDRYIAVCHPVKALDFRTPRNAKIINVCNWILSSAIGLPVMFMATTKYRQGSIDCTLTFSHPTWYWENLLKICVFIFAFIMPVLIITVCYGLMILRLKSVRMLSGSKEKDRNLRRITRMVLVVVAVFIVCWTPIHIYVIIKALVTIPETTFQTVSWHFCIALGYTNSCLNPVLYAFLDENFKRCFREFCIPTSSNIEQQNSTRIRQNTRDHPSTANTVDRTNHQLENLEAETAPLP

SMILES	μ opioid receptor [1 μmol], % inhibition [%]
CN(C)C(c1ccc(F)cc1)C1CCC2(CC1)c1[nH]c3ccccc3c1CCN2C(=O)COCc1ccccc1 (centres unmarked) [Compound 88, 2-(benzyloxyacetyl)-{1,1-[3-(dimethylamino-(4-fluorophenyl)methyl)-pentamethylene]-3,4-dihydro-1H-2,9-diazafluorene}]	11
CN(C)C(c1ccccc1)C1CCC2(CC1)c1[nH]c3ccccc3c1CCN2C(=O)Cc1cccs1 (centres unmarked) [Compound 82, 2-(2-thienylacetyl)-{1,1-[3-(dimethylamino-phenylmethyl)-pentamethylene]-3,4-dihydro-1H-2,9-diazafluorene}]	31
CN(C)C(c1cccc(F)c1)C1CCC2(CC1)c1[nH]c3ccccc3c1CCN2C(=O)C1CCCCC1 (centres unmarked) [Compound 69, 2-(cyclohexylcarbonyl)-{1,1-[3-(dimethylamino-(3-fluorophenyl)methyl)-pentamethylene]-3,4-dihydro-1H-2,9-diazafluorene}]	26
CN(C)C(c1cccc(F)c1)C1CCC2(CC1)c1[nH]c3ccccc3c1CCN2C(=O)COCc1ccccc1 (centres unmarked) [Compound 94, 2-(benzyloxyacetyl)-{1,1-[3-(dimethylamino-(3-fluorophenyl)methyl)-pentamethylene]-3,4-dihydro-1H-2,9-diazafluorene}]	32
COc1ccc(CC(=O)N2CCc3c([nH]c4ccccc34)C23CCC(C(c2cccc(F)c2)N(C)C)CC3)cc1OC (centres unmarked) [Compound 67, 2-[(3,4-dimethoxyphenyl)acetyl]-{1,1-[3-(dimethylamino-(3-fluorophenyl)methyl)-pentamethylene]-3,4-dihydro-1H-2,9-diazafluorene}]	25
CC(C)C(=O)N1CCc2c([nH]c3ccccc23)C12CCC(C(c1ccc(Cl)cc1)N(C)C)CC2 (centres unmarked) [Compound 119, 2-isobutyryl-{1,1-[3-(dimethylamino-(4-chlorophenyl)methyl)-pentamethylene]-3,4-dihydro-1H-2,9-diazafluorene}]	40
CN(C)C(c1ccccc1)C1CCC2(CC1)c1[nH]c3ccccc3c1CCN2C(=O)COc1ccc(Cl)cc1 (centres unmarked) [Compound 60, 2-[(4-chlorophenoxy)acetyl]-{1,1-[3-(dimethylamino-phenylmethyl)-pentamethylene]-3,4-dihydro-1H-2,9-diazafluorene}]	26
CN(C)C(c1ccc(Cl)cc1)C1CCC2(CC1)c1[nH]c3ccccc3c1CCN2C(=O)CC(C)(C)C (centres unmarked) [Compound 73, 1-{1,1-[3-(dimethylamino-(4-chlorophenyl)methyl) -pentamethylene]-3,4-dihydro-1H-2,9-diazafluoren-2-yl}-3,3-dimethylbutan-1-one]	24
CN(C)C(c1ccccc1)C1CCC2(CC1)c1[nH]c3ccccc3c1CCN2C(=O)C1CCCC1 (centres unmarked) [Compound 125, 2-cyclopentylcarbonyl-{1,1-[3-(dimethylamino-phenylmethyl)-pentamethylene]-3,4-dihydro-1H-2,9-diazafluorene}]	29
CN(C)C(c1ccc(Cl)cc1)C1CCC2(CC1)c1[nH]c3ccccc3c1CCN2C(=O)C1CCCCC1 (centres unmarked) [Compound 76, 2-(cyclohexylcarbonyl)-{1,1-[3-(dimethylamino-(4-chlorophenyl)methyl)-pentamethylene]-3,4-dihydro-1H-2,9-diazafluorene}]	15
CC(=O)N1CCc2c([nH]c3ccccc23)C12CCC(C(c1ccc(F)cc1)N(C)C)CC2 (centres unmarked) [Compound 84, acetyl-{1,1-[3-(dimethylamino-(4-fluorophenyl)methyl) -pentamethylene]-3,4-dihydro-1H-2,9-diazafluorene}]	41
CN(C)C(c1ccc(F)cc1)C1CCC2(CC1)c1[nH]c3ccccc3c1CCN2C(=O)C=Cc1ccccc1 (centres unmarked) [Compound 86, 1-{1,1-[3-(dimethylamino-(4-fluorophenyl)methyl) -pentamethylene]-3,4-dihydro-1H-2,9-diazafluoren-2-yl}-3-phenylprop-2-en-1-one]	12
CN(C)C(c1ccc(Cl)cc1)C1CCC2(CC1)c1[nH]c3ccccc3c1CCN2C(=O)c1cc2ccccc2s1 (centres unmarked) [Compound 78, 2-(1-benzothien-2-ylcarbonyl)-{1,1-[3-(dimethylamino-(4-chlorophenyl)-methyl)-pentamethylene]-3,4-dihydro-1H-2,9-diazafluorene}]	11
CC(CC(=O)N1CCc2c([nH]c3ccccc23)C12CCC(C(c1cccc(F)c1)N(C)C)CC2)c1ccccc1 (centres unmarked) [Compound 130, 1-{1,1-[3-(dimethylamino-(3-fluorophenyl)methyl) -pentamethylene]-3,4-dihydro-1H-2,9-diazafluoren-2-yl}-3-phenylbutan-1-one]	49
CN(C)C(c1cccc(F)c1)C1CCC2(CC1)c1[nH]c3ccccc3c1CCN2C(=O)C1CC1 (centres unmarked) [Compound 91, 2-(cyclopropylcarbonyl)-{1,1-[3-(dimethylamino-(3-fluorophenyl)methyl)-pentamethylene]-3,4-dihydro-1H-2,9-diazafluorene}]	25
COc1ccc(CC(=O)N2CCc3c([nH]c4ccccc34)C23CCC(C(c2ccc(Cl)cc2)N(C)C)CC3)cc1OC (centres unmarked) [Compound 74, 2-[(3,4-dimethoxyphenyl)acetyl]-{1,1-[3-(dimethylamino-(4-chlorophenyl)-methyl)-pentamethylene]-3,4-dihydro-1H-2,9-diazafluorene}]	37
CC(Oc1ccccc1)C(=O)N1CCc2c([nH]c3ccccc23)C12CCC(C(c1ccc(Cl)cc1)N(C)C)CC2 (centres unmarked) [Compound 133, 2-(2-phenoxypropanoyl)-{1,1-[3-(dimethylamino-(4-chlorophenyl)methyl)-pentamethylene]-3,4-dihydro-1H-2,9-diazafluorene}]	71
CN(C)C(c1ccc(Cl)cc1)C1CCC2(CC1)c1[nH]c3ccccc3c1CCN2C(=O)Cc1cccs1 (centres unmarked) [Compound 98, 2-(2-thienylacetyl)-{1,1-[3-(dimethylamino-(4-chlorophenyl)methyl)-pentamethylene]-3,4-dihydro-1H-2,9-diazafluorene}]	21
CN(C)C(c1cccc(F)c1)C1CCC2(CC1)c1[nH]c3ccccc3c1CCN2C(=O)Cc1cccs1 (centres unmarked) [Compound 93, 2-(2-thienylacetyl)-{1,1-[3-(dimethylamino-(3-fluorophenyl)methyl)-pentamethylene]-3,4-dihydro-1H-2,9-diazafluorene}]	19
CCCCC(CC)C(=O)N1CCc2c([nH]c3ccccc23)C12CCC(C(c1ccc(Cl)cc1)N(C)C)CC2 (centres unmarked) [Compound 118, 2-(2-ethylhexanoyl)-{1,1-[3-(dimethylamino-(4-chlorophenyl)methyl)-pentamethylene]-3,4-dihydro-1H-2,9-diazafluorene}]	35
CN(C)C(c1ccccc1)C1CCC2(CC1)c1[nH]c3ccccc3c1CCN2C(=O)c1csc2ccccc12 (centres unmarked) [Compound 103, 2-(1-benzothien-3-ylcarbonyl)-{1,1-[3-(dimethylamino-phenylmethyl)-pentamethylene]-3,4-dihydro-1H-2,9-diazafluorene}]	13
CN(C)C(c1ccc(Cl)cc1)C1CCC2(CC1)c1[nH]c3ccccc3c1CCN2C(=O)COCc1ccccc1 (centres unmarked) [Compound 99, 2-(benzyloxyacetyl)-{1,1-[3-(dimethylamino-(4-chlorophenyl)methyl)-pentamethylene]-3,4-dihydro-1H-2,9-diazafluorene}]	35
CN(C)C(c1ccc(F)cc1)C1CCC2(CC1)c1[nH]c3ccccc3c1CCN2C(=O)Cc1ccc(F)cc1 (centres unmarked) [Compound 110, 2-[(4-fluorophenyl)acetyl]-{1,1-[3-(dimethylamino-(4-fluorophenyl)methyl)-pentamethylene]-3,4-dihydro-1H-2,9-diazafluorene}]	14
CCC(CC)C(=O)N1CCc2c([nH]c3ccccc23)C12CCC(C(c1ccc(F)cc1)N(C)C)CC2 (centres unmarked) [Compound 139, 1-{1,1-[3-(dimethylamino-(4-fluorophenyl)methyl) -pentamethylene]-3,4-dihydro-1H-2,9-diazafluoren-2-yl}-2-ethylbutan-1-one]	25
COc1ccc(CC(=O)N2CCc3c([nH]c4ccccc34)C23CCC(C(c2ccccc2)N(C)C)CC3)cc1OC (centres unmarked) [Compound 57, 2-[(3,4-dimethoxyphenyl)acetyl]-{1,1-[3-(dimethylamino-phenylmethyl)-pentamethylene]-3,4-dihydro-1H-2,9-diazafluorene}]	55
CCC(=O)N1CCc2c([nH]c3ccccc23)C12CCC(C(c1ccc(Cl)cc1)N(C)C)CC2 (centres unmarked) [Compound 120, 2-propionyl-{1,1-[3-(dimethylamino-(4-chlorophenyl)methyl)-pentamethylene]-3,4-dihydro-1H-2,9-diazafluorene}]	29
